Here are results for 21 substances from patent US20220259593A1, “CONTROL OF MAMMALIAN GENE DOSAGE USING CRISPR” (The Regents of the University of California, priority 2019, published 2022).

The test system of data set [1] is K562 CRISPRi cells. The experiment in a line: Perturb-seq pooled growth measurement (sgRNA counts, growth phenotype γ, relative activity). The class given is cell-based, human. The conditions noted are these: γ relative to perfectly matched sgRNA (_00) of the same gene, day 10.
Data set [2] concerns K562 CRISPRi cells. The description is as above. The class given is cell-based, human. The conditions noted are these: for gamma_day5 / gamma_day10: pooled growth phenotype γ of the Perturb-seq sgRNA; for gamma_day5: day 5, K562 CRISPRi cells; for gamma_day10: day 10, K562 CRISPRi cells; for relative_activity_day5: γ relative to perfectly matched sgRNA (_00) of the same gene, day 5. The procedure, abridged:
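sgRNA abundance was sequenced from genomic DNA of the same transduced population sampled on days two, seven and twelve. Phenotype γ compares normalized day seven and twelve counts with day two. Day-seven values (five days of growth) define relative sgRNA activity.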

“CAD_ + _27440280.23-P1P2_07 (guide GGCTGGAGCGAAGCCGGGCG; listed as DNA, chemistry not fully specified)” came in with a relative_activity_day10 with K562 CRISPRi cells [1] of 0.6811. In the data set with K562 CRISPRi cells [2], the gamma_day5 is reported as −0.6026, the gamma_day10 is reported as −0.4659 and the relative_activity_day5 turned out to be 0.7812.

In turn, “CAD_ + _27440280.23-P1P2_13 (guide GGCTGGAGAGAAGCCTGGCG; listed as DNA, chemistry not fully specified)” registered a relative_activity_day10 in the data set on K562 CRISPRi cells [1] of 0.241. In the data set on K562 CRISPRi cells [2], this substance gave a gamma_day5 of −0.1861, a gamma_day10 of −0.1648 and a relative_activity_day5 of 0.2413.

For the substance “CDC23_ −_137548987.23-P1P2_00 (guide GACAGCCACCGGGACCATGG; listed as DNA, chemistry not fully specified)”, the relative_activity_day10 with K562 CRISPRi cells [1] was found to be 1. For the same substance, in the data set on K562 CRISPRi cells [2], the gamma_day5 is on record as −1.176, the gamma_day10 is on record as −0.6584 and the relative_activity_day5 is reported as 1.

Turning to “CDC23_ −_137548987.23-P1P2_02 (guide GACAGCTACCGGGACCATGG; listed as DNA, chemistry not fully specified)”, the relative_activity_day10 in the data set with K562 CRISPRi cells [1] is reported as 0.8665. In the data set with K562 CRISPRi cells [2], this substance came in with a gamma_day5 of −1.087, a gamma_day10 of −0.5705 and a relative_activity_day5 of 0.9238.

As to “CDC23_ −_137548987.23-P1P2_04 (guide GACAGCCAACGGGACCATGG; listed as DNA, chemistry not fully specified)”, the relative_activity_day10 in the data set with K562 CRISPRi cells [1] worked out at 0.8148. In the data set on K562 CRISPRi cells [2], the gamma_day5 is −0.8887, the gamma_day10 is reported as −0.5364 and the relative_activity_day5 stood at 0.7556.

In turn, “CDC23_ −_137548987.23-P1P2_08 (guide GACAGCCATCGGGACCATGG; listed as DNA, chemistry not fully specified)” returned a relative_activity_day10 with K562 CRISPRi cells [1] of 0.8355. In the data set on K562 CRISPRi cells [2], this substance showed a gamma_day5 of −0.9559, a gamma_day10 of −0.5501 and a relative_activity_day5 of 0.8128.

Substance “CDC23_ −_137548987.23-P1P2_11 (guide GACAGCCACCGGGACCACGG; listed as DNA, chemistry not fully specified)” returned a relative_activity_day10 in the data set with K562 CRISPRi cells [1] of 0.3065. In the data set with K562 CRISPRi cells [2], this substance came in with a gamma_day5 of −0.2745, a gamma_day10 of −0.2018 and a relative_activity_day5 of 0.2334.

“COX11_ + _53045977.23-P1P2_00 (guide GGCTCTGGCGTCCTGGATGG; listed as DNA, chemistry not fully specified)” came in with a relative_activity_day10 in the data set on K562 CRISPRi cells [1] of 1. In the data set on K562 CRISPRi cells [2], this substance showed a gamma_day5 of −0.1817, a gamma_day10 of −0.2988 and a relative_activity_day5 of 1.

“COX11_ + _53045977.23-P1P2_03 (guide GGCTCTGTCGTCCTGGATGG; listed as DNA, chemistry not fully specified)” gave a relative_activity_day10 in the data set with K562 CRISPRi cells [1] of 0.9622. In the data set on K562 CRISPRi cells [2], this substance came in with a gamma_day5 of −0.1719, a gamma_day10 of −0.2875 and a relative_activity_day5 of 0.9463.

With “COX11_ + _53045977.23-P1P2_04 (guide GGCTCTGGCGCCCTGGATGG; listed as DNA, chemistry not fully specified)”, in the data set on K562 CRISPRi cells [1], the relative_activity_day10 came to 0.8616. In the data set on K562 CRISPRi cells [2], this substance had a gamma_day5 of −0.1495, a gamma_day10 of −0.2574 and a relative_activity_day5 of 0.8227.

In turn, “COX11_ + _53045977.23-P1P2_05 (guide GGCTCTGGCGTCTTGGATGG; listed as DNA, chemistry not fully specified)” yielded a relative_activity_day10 in the data set on K562 CRISPRi cells [1] of 0.3613. Further, in the data set on K562 CRISPRi cells [2], the gamma_day5 is listed as −0.0555, the gamma_day10 was −0.108 and the relative_activity_day5 stood at 0.3055.

On to “COX11_ + _53045977.23-P1P2_10 (guide GGCTCTGGCGTCCCGGATGG; listed as DNA, chemistry not fully specified)”, for which, in the data set on K562 CRISPRi cells [1], the relative_activity_day10 turned out to be 0.3734. Also, in the data set with K562 CRISPRi cells [2], the gamma_day5 is reported as −0.1247, the gamma_day10 is listed as −0.1116 and the relative_activity_day5 is on record as 0.6866.

“DBR1_ + _137893744.23-P1P2_00 (guide GTTTGCAGGAGTCTACACCC; listed as DNA, chemistry not fully specified)” registered a relative_activity_day10 in the data set on K562 CRISPRi cells [1] of 1. In addition, in the data set with K562 CRISPRi cells [2], the gamma_day5 was −0.4556, the gamma_day10 is −0.4893 and the relative_activity_day5 stood at 1.

“DBR1_ + _137893744.23-P1P2_01 (guide GATTGCAGGAGTCTACACCC; listed as DNA, chemistry not fully specified)”: the relative_activity_day10 in the data set with K562 CRISPRi cells [1] is 1.119. In the data set with K562 CRISPRi cells [2], this substance returned a gamma_day5 of −0.5119, a gamma_day10 of −0.5474 and a relative_activity_day5 of 1.124.

For the substance “DBR1_ + _137893744.23-P1P2_05 (guide GTTTGCAGGAGTGTACACCC; listed as DNA, chemistry not fully specified)”, the relative_activity_day10 with K562 CRISPRi cells [1] is 0.6323. Further, in the data set on K562 CRISPRi cells [2], the gamma_day5 is recorded as −0.3102, the gamma_day10 is −0.3094 and the relative_activity_day5 was found to be 0.6809.

Turning to “DBR1_ + _137893744.23-P1P2_07 (guide GTTTGCAGGGGTCTACACCC; listed as DNA, chemistry not fully specified)”, in the data set on K562 CRISPRi cells [1], the relative_activity_day10 was 0.9563. In the data set on K562 CRISPRi cells [2], the gamma_day5 is −0.5167, the gamma_day10 is given as −0.468 and the relative_activity_day5 came out at 1.134.

As for “DBR1_ + _137893744.23-P1P2_08 (guide GTTTGCAGTAGTCTACACCC; listed as DNA, chemistry not fully specified)”, the relative_activity_day10 with K562 CRISPRi cells [1] is reported as 0.1075. Also, in the data set with K562 CRISPRi cells [2], the gamma_day5 is listed as −0.03529, the gamma_day10 is −0.05261 and the relative_activity_day5 stood at 0.07746.

Consider “DUT_ + _48624411.23-P1P2_00 (guide GCGAGCGAGGAGACCACCGG; listed as DNA, chemistry not fully specified)”, for which the relative_activity_day10 in the data set on K562 CRISPRi cells [1] is reported as 1. In the data set with K562 CRISPRi cells [2], this substance yielded a gamma_day5 of −0.7929, a gamma_day10 of −0.6457 and a relative_activity_day5 of 1.

In the data set on K562 CRISPRi cells [1], “DUT_ + _48624411.23-P1P2_01 (guide GCCAGCGAGGAGACCACCGG; listed as DNA, chemistry not fully specified)” gave a relative_activity_day10 of 0.9341. In the data set with K562 CRISPRi cells [2], this substance showed a gamma_day5 of −0.7924, a gamma_day10 of −0.6032 and a relative_activity_day5 of 0.9993.

In the data set with K562 CRISPRi cells [1], “DUT_ + _48624411.23-P1P2_07 (guide GCGAGCGAGGAGCCCACCGG; listed as DNA, chemistry not fully specified)” had a relative_activity_day10 of 0.774. In the data set with K562 CRISPRi cells [2], this substance came in with a gamma_day5 of −0.7197, a gamma_day10 of −0.4998 and a relative_activity_day5 of 0.9077.

Take “DUT_ + _48624411.23-P1P2_08 (guide GCGAGCGAGGAGGCCACCGG; listed as DNA, chemistry not fully specified)”: the relative_activity_day10 with K562 CRISPRi cells [1] turned out to be 0.9077. Besides, in the data set on K562 CRISPRi cells [2], the gamma_day5 is listed as −0.7725, the gamma_day10 is recorded as −0.5862 and the relative_activity_day5 turned out to be 0.9742.
